Like-named read-outs stand apart in the source and are kept apart here.
Legend:
angiogenesis = conditions: previously demonstrated; cited from earlier work
[1] = system: Human umbilical vein endothelial cells (HUVEC); test: HUVEC angiogenesis (network formation on Matrigel) assay; assay type: cell-based; conditions: 24 h incubation, 1-100 μM, read-out: Inhibition of HUVEC network formation IC50
Method: Mebendazole was dissolved in 50 μl of DMSO and diluted with endothelial growth medium (EGM) to a final concentration of 1 mM. The highest concentration of DMSO is 0.1%. Human umbilical vein endothelial cells (HUVEC) were purchased from Cambrex Co. (East Rutherford, N.J., USA) and maintained in endothelial growth medium (EGM) supplemented with 2% FBS, 0.1% EGF, 0.1% hydrocortisone, 0.1% GA-1000, and 0.4% BBE. Morphogenesis assay on Matrigel was performed according to the manufacturer's instructions (Chemicon International). The ECMatrix™ kit consists of laminin, collagen type IV, heparan sulfate, proteoglycans, entactin, and nidogen. It also contains various growth factors (TGF-beta, FGF) and proteolytic enzymes (plasminogen, tPA, and MMPs) that are normally produced in EHS tumors. The incubation condition was optimized for maximal tube-formation as follows: 50 μl of EC Matrix™ was suitably diluted in a ratio 9:1 with 10× diluent buffer and used to coat the 96-well plate. The coated plates were incubated at 37° C. for 1 hr to allow the Matrix solution to solidify. HUVECs were cultured for 24 h in EGM with 2% FBS, trypsinized and re-suspended in the growth medium. […]
The efficiency of Mebendazole to inhibit the VEGFR2 kinase was measured by monitoring the ability of HUVECs to form networks.

VEGFR2 = VEGFR2 (Homo sapiens, UniProt P35968); conditions: read-out: VEGFR2 kinase activity IC50; 450 uM ATP, 60 minutes at room temperature, duplicate wells
VEGFR2, sequence (P35968 20-1356, species assumed): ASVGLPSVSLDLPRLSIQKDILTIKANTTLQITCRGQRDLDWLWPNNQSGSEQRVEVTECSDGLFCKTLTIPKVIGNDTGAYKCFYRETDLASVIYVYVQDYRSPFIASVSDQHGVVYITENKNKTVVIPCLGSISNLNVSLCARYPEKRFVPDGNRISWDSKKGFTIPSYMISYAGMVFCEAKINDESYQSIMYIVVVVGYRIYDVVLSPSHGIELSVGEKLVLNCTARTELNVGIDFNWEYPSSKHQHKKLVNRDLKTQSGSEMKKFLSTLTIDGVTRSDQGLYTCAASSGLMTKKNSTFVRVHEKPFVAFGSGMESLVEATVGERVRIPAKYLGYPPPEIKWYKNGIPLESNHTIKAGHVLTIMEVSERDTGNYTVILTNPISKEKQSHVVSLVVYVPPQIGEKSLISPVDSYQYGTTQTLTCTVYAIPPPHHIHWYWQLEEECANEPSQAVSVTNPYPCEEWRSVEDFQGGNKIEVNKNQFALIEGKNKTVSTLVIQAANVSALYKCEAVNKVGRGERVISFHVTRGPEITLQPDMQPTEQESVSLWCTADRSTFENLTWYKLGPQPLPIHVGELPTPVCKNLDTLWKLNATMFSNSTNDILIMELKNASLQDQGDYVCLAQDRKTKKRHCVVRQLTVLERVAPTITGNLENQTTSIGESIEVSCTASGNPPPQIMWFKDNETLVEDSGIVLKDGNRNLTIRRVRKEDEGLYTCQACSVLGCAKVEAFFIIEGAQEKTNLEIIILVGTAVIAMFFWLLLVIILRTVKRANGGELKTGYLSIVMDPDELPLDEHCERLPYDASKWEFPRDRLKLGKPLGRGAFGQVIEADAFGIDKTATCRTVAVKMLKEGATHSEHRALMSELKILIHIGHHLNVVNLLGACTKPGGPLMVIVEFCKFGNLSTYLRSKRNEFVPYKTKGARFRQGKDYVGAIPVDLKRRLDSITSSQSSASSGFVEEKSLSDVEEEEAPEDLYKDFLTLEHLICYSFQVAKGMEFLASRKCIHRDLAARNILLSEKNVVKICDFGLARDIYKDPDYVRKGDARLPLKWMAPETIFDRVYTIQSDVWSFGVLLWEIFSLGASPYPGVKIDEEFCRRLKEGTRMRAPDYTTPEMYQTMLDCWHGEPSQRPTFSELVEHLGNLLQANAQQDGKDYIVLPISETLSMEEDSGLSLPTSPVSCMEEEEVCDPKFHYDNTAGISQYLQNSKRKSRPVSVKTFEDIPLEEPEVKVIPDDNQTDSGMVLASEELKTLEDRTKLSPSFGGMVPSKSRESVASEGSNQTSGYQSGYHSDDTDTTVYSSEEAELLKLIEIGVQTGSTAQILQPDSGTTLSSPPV
Method: The VEGFR2 kinase assay was performed by using the Caliper LabChip 3000 and a 12-sipper LabChip. […] The off-chip incubation mobility-shift kinase assay uses a microfluidic chip to measure the conversion of a fluorescent peptide substrate to a phosphorylated product. The reaction mixture, from a microtiter well plate, is introduced through a capillary sipper onto the chip, where the nonphosphorylated substrate and phosphorylated product are separated by electrophoresis and detected via laser-induced fluorescence.
The assay reaction is: Fluorescein-peptide+ATP→fluorescein-phosphopeptide+ADP, which is measured by charge separation of phosphorylated product and unphosphorylated substrate. […] Following addition of ATP, samples were incubated for 60 minutes at room temperature and the reaction was terminated by the addition of stop buffer containing 100 mM HEPES (pH 7.5), 7 mM EDTA, 0.015% Brij-35, 4% DMSO. Phosphorylated product and unphosphorylated substrate were separated by charge using electrophoretic mobility shift. The product formed is compared to control wells to determine inhibition or enhancement of enzyme activity.
IC50 curves were generated using GraphPad 5 and a standard 4-parameter non-linear regression model (log [inhibitor] vs response−variable slope). Data points correspond to the averages of duplicate wells, and error bars represent the mean±replicate % activity.

[2] = system: MDA-MB-231 invasive breast cancer cell line; test: Growth inhibition of MDA-MB-231 cells, MTS assay; assay type: cell-based; conditions: Homo sapiens, 48 hrs exposure
Method: MDA-MB-231 cells were seeded at 4000 cells/well in a 96 well plate. […] Three wells per concentration were treated 24 h post seeding, and the MTS assay was performed 48 h post treatment. The CellTiter96 Aqueous Non-Radioactive Cell Proliferation Assay kit (Promega) was used according to the manufacturer's recommendations. The absorbance values were measured at 490 nm and viable cells presented as a percentage of the absorbance of DMSO-only treated cells. IC50 and R^2 values were calculated with the Graphpad Prism software.

[3] = rats; cited from earlier work
[4] = humans; cited from earlier work

For CCCSc1ccc2nc(NC(=O)OC)[nH]c2c1 [Albendazole], the Inhibition of angiogenesis (angiogenesis) is listed as “inhibit angiogenesis”.

In the case of COC(=O)Nc1nc2ccc(C(=O)c3ccccc3)cc2[nH]1 [Mebendazole], the IC50 [1] is reported as 8.8 µM and the IC50 (VEGFR2) is reported as 3.6 µM.

For Cc1ccc(-c2cc(C(F)(F)F)nn2-c2ccc(S(N)(=O)=O)cc2)cc1 [celecoxib], the IC50 [2] is given as 40 µM, the Circulating levels [3] is given as 1 to 10 µM and the Circulating levels [4] is given as 1 to 10 µM.

Cc1ccc(C)c(-c2cc(C(F)(F)F)nn2-c2ccc(S(N)(=O)=O)cc2)c1 [dimethyl celecoxib] gave an IC50 [2] of 36 µM.
